Data as given in US20070117743A1, “New antitumoral compounds” (priority 2003, published 2007).
Read-outs that look alike come from different tables or passages of the source. *1 amine or outer side, *2 acyl side, *3 side chain or, on linkers, in order; H or OH if unused. Where a SMILES comes first, the peptide text is derived from it. Bridges are numbered along the chain shown (N, C = ends). [ ]: non-standard residue; d: D form. The star is where a group is joined. X3 = CN(C)C(=NCCC[C@H](N[*:1])C(=O)[*:2])N(C)c1ccccc1; X2 = CN(C)C(=NCCC[C@H](N[*:1])C(=O)[*:2])N1CCCC1; X1 = CN(C)C(=NCCC[C@H](N[*:1])C(=O)[*:2])N(C)C; d(aIle) = CC[C@H](C)[C@@H](N)C(=O)O; d(aThr) = C[C@@H](O)[C@@H](N)C(=O)O; Hexanoyl(5-Me) = CC(C)CCCC(=O)*; Orn = NCCC[C@H](N)C(=O)O; Dhb = C/C=C(\N)C(=O)O

How the values were obtained:
Format in all cases: cell-based, human
A-549 = assay: SRB colorimetric assay of cell growth and viability, A-549; conditions: 48 hours exposure; for GI50: read-out: GI50 A-549; for CC50: read-out: LC50 A-549
Source text: (§1) The finality of this assay is to interrupt the growth of a “in vitro” tumor cell culture by means a continued exhibition of the cells to the sample to be testing.
(§2) This form of the assay employs 96 well cell culture microplates of 9 mm diameter (Faircloth, 1988; Mosmann, 1983). Most of the cell lines are obtained from American Type Culture Collection (ATCC) derived from different human cancer types.
(§3) Cells are maintained in RPMI 1640 10% FBS, supplemented with 0.1 g/l penicillin and 0.1 g/l streptomycin sulfate and then incubated at 37° C., 5% CO2 and 98% humidity. For the experiments, cells were harvested from subconfluent cultures using trypsin and resuspended in fresh medium before plating.
(§4) Cells are seeded in 96 well microtiter plates, at 5×10^3 cells per well in aliquots of 195 μL medium, and they are allowed to attach to the plate surface by growing in drug free medium for 18 hours. Afterward, samples are added in aliquots of 5 μL in a ranging from 10 to 10^−8 μg/mL, dissolved in DMSO:EtOH:PBS (0.5:0.5:99). After 48 hours exposure, the antitumor effect are measured by the SRB methodology: cells are fixed by adding 50 μL of cold 50% (wt/vol) trichloroacetic acid (TCA) and incubating for 60 minutes at 4° C. Plates are washed with deionized water and dried. One hundred μL of SRB solution (0.4% wt/vol in 1% acetic acid) is added to each microtiter well and incubated for 10 minutes at room temperature. Unbound SRB is removed by washing with 1% acetic acid. Plates are air dried and bound stain is solubilized with Tris buffer. Optical densities are read on a automated spectrophotometric plate reader at a single wavelength of 490 nm.
(§5) The values for mean+/− SD of data from triplicate wells are calculated. Some parameters for cellular responses can be calculated: GI=growth inhibition, TGI=total growth inhibition (cytostatic effect) and LC=cell killing (cytotoxic effect).

SK-MEL-28 = assay: SRB colorimetric assay of cell growth and viability, SK-MEL-28; conditions: 48 hours exposure; for CC50: read-out: LC50 MEL-28
Source text: as §1, §2, §3, §4, §5

HT-29 = assay: SRB colorimetric assay of cell growth and viability, HT-29; conditions: 48 hours exposure; for GI50: read-out: GI50 HT-29; for CC50: read-out: LC50 HT-29
Source text: as §1, §2, §3, §4, §5

LoVo = assay: SRB colorimetric assay of cell growth and viability, LoVo; conditions: 48 hours exposure; for CC50: read-out: LC50 LOVO
Source text: as §1, §2, §3, §4, §5

LoVo-Dox = assay: SRB colorimetric assay of cell growth and viability, LoVo-Dox; conditions: 48 hours exposure; for CC50: read-out: LC50 LOVO-DOX
Source text: as §1
A colorimetric type of assay, using sulforhodamine B (SRB) reaction has been adapted for a quantitative measurement of cell growth and viability [following the technique described by Philip Skehan, et al. (1990), New colorimetric cytotoxicity assay for anticancer drug screening, J. Natl. Cancer Inst., 82:1107-1112].
as §2, §3, §4, §5

DU-145 = assay: SRB colorimetric assay of cell growth and viability, DU-145; conditions: 48 hours exposure
Source text: as §1, §2, §3, §4, §5

IGROV-1 = assay: SRB colorimetric assay of cell growth and viability, IGROV-1; conditions: 48 hours exposure
Source text: as §1, §2, §3, §4, §5

IGROV-ET = assay: SRB colorimetric assay of cell growth and viability, IGROV-ET; conditions: 48 hours exposure; for CC50: read-out: LC50 IGROV-ET
Source text: as §1, §2, §3, §4, §5

HeLa = assay: SRB colorimetric assay of cell growth and viability, HeLa; conditions: 48 hours exposure; for CC50: read-out: LC50 HELA
Source text: as §1, §2, §3, §4, §5

HeLa-APL = assay: SRB colorimetric assay of cell growth and viability, HeLa-APL; conditions: 48 hours exposure; for CC50: read-out: LC50 HELA-APL
Source text: as §1, §2, §3, §4, §5

K-562 = assay: SRB colorimetric assay of cell growth and viability, K-562; conditions: 48 hours exposure; for CC50: read-out: LC50 K-562
Source text: as §1, §2, §3, §4, §5

PANC-1 = assay: SRB colorimetric assay of cell growth and viability, PANC-1; conditions: 48 hours exposure; for CC50: read-out: LC50 PANC-1
Source text: as §1, §2, §3, §4, §5

Row | SMILES | TGI A-549 (A-549) | GI50 (A-549) | CC50 (A-549) | GI50 (SK-MEL-28) | TGI MEL-28 (SK-MEL-28) | CC50 (SK-MEL-28) | TGI HT-29 (HT-29) | GI50 (HT-29) | CC50 (HT-29) | GI50 (LoVo) | TGI LOVO (LoVo) | CC50 (LoVo) | GI50 (LoVo-Dox) | TGI LOVO-DOX (LoVo-Dox) | CC50 (LoVo-Dox) | GI50 (DU-145) | LC50 (concentration causing 50% net cell kill) (DU-145) | TGI DU-145 (DU-145) | TGI A-549 (A-549; SRB) | TGI HT-29 (HT-29; SRB) | other results
1 | C/C=C1\NC(=O)[C@H](Cc2ccccc2)NC(=O)[C@@H](C(C)C)NC(=O)[C@@H]([C@@H](C)CC)NC(=O)[C@H](NC(=O)[C@H](NC(=O)[C@H](CCCN)NC(=O)[C@H]2CCCN2C(=O)[C@H](NC(=O)[C@@H](NC(=O)[C@H](C)NC(=O)CCCC(C)C)C(C)C)C(C)C)[C@@H](C)CC)[C@@H](C)OC(=O)[C@H](C(C)C)NC1=O [Compound 52, [Ala^12, noD-Val^13]-KF] ({Hexanoyl(5-Me)}-AV[dV][dP][Orn][d(aIle)][d(aThr)][d(aIle)][dV]F[Dhb]V; ester 7-C) | 7.41E−06 Molar | 7.41 µM | 7.41 µM | 7.41 µM | 7.41E−06 Molar | 7.41 µM | 7.41E−06 Molar | 7.41 µM | 7.41 µM | 7.41 µM | 7.41E−06 Molar | 7.41 µM | 7.41 µM | 7.41E−06 Molar | 7.41 µM | 7.41 µM | 7.41 µM | 7.41E−06 Molar |  |  | GI50 (IGROV-1): 7.41 µM; LC50 (concentration causing 50% net cell killing) (IGROV-1): 7.41 µM; TGI IGROV (IGROV-1): 7.41E−06 Molar; GI50 (IGROV-ET): 3.67 µM; TGI IGROV-ET (IGROV-ET): 7.41E−06 Molar; CC50 (IGROV-ET): 7.41 µM; GI50 (HeLa): 6.18 µM; TGI HELA (HeLa): 7.41E−06 Molar; CC50 (HeLa): 7.41 µM; GI50 (HeLa-APL): 0.0179 µM; TGI HELA-APL (HeLa-APL): 7.41E−06 Molar; CC50 (HeLa-APL): 7.41 µM; GI50 (K-562): 7.41 µM; TGI K-562 (K-562): 7.41E−06 Molar; CC50 (K-562): 7.41 µM; GI50 (PANC-1): 6.64 µM; TGI PANC-1 (PANC-1): 7.41E−06 Molar; CC50 (PANC-1): 7.41 µM
2 | C/C=C1\NC(=O)[C@H](Cc2ccccc2)NC(=O)[C@@H](C(C)C)NC(=O)[C@@H]([C@@H](C)CC)NC(=O)[C@H](NC(=O)[C@H](NC(=O)[C@H](CCCN)NC(=O)[C@H]2CCCN2C(=O)[C@H](NC(=O)[C@@H](NC(=O)[C@@H](NC(=O)CNC(=O)CCCC(C)C)[C@@H](C)O)C(C)C)C(C)C)[C@@H](C)CC)[C@@H](C)OC(=O)[C@H](C(C)C)NC1=O [Compound 33, [Gly^13]-KF] | 3.08E−06 Molar | 0.982 µM | 6.96 µM | 6.32 µM | 6.96E−06 Molar | 6.96 µM | 6.96E−06 Molar | 4.51 µM | 6.96 µM | 3.99 µM | 6.96E−06 Molar | 6.96 µM | 4.85 µM | 6.96E−06 Molar | 6.96 µM | 6.96 µM | 6.96 µM | 6.96E−06 Molar |  |  | GI50 (IGROV-1): 6.96 µM; LC50 (concentration causing 50% net cell killing) (IGROV-1): 6.96 µM; TGI IGROV (IGROV-1): 6.96E−06 Molar; GI50 (IGROV-ET): 5.27 µM; TGI IGROV-ET (IGROV-ET): 6.96E−06 Molar; CC50 (IGROV-ET): 6.96 µM; GI50 (HeLa): 0.954 µM; TGI HELA (HeLa): 3.22E−06 Molar; CC50 (HeLa): 6.96 µM; GI50 (HeLa-APL): 6.96 µM; TGI HELA-APL (HeLa-APL): 6.96E−06 Molar; CC50 (HeLa-APL): 6.96 µM; GI50 (K-562): 6.96 µM; TGI K-562 (K-562): 6.96E−06 Molar; CC50 (K-562): 6.96 µM; GI50 (PANC-1): 0.385 µM; TGI PANC-1 (PANC-1): 1.70E−06 Molar; CC50 (PANC-1): 5.04 µM
3 | C/C=C1\NC(=O)[C@H](Cc2ccccc2)NC(=O)[C@@H](C(C)C)NC(=O)[C@@H]([C@@H](C)CC)NC(=O)[C@H](NC(=O)[C@H](NC(=O)[C@H](CCCN=C(N(C)C)N(C)C)NC(=O)[C@H]2CCCN2C(=O)[C@H](NC(=O)[C@@H](NC(=O)[C@@H](NC(=O)[C@H](NC(=O)CCCC(C)C)C(C)C)[C@@H](C)O)C(C)C)C(C)C)[C@@H](C)CC)[C@@H](C)OC(=O)[C@H](C(C)C)NC1=O [Compound 89, [N(Me)2,N′(Me)2-Arg^8]-Kahalalide F] ({Hexanoyl(5-Me)}-[dV]TV[dV][dP][X1][d(aIle)][d(aThr)][d(aIle)][dV]F[Dhb]V; ester 8-C) |  |  |  |  |  |  |  |  |  |  |  |  |  |  |  |  |  |  | 4.44E−07 Molar | 3.17E−07 Molar | GI50 (A-549; SRB): 0.317 µM; CC50 (A-549; SRB): 0.635 µM; GI50 (HT-29; SRB): 0.0635 µM; CC50 (HT-29; SRB): 0.571 µM
4 | C/C=C1\NC(=O)[C@H](Cc2ccccc2)NC(=O)[C@@H](C(C)C)NC(=O)[C@@H]([C@@H](C)CC)NC(=O)[C@H](NC(=O)[C@H](NC(=O)[C@H](CCCN=C(N(C)C)N2CCCC2)NC(=O)[C@H]2CCCN2C(=O)[C@H](NC(=O)[C@@H](NC(=O)[C@@H](NC(=O)[C@H](NC(=O)CCCC(C)C)C(C)C)[C@@H](C)O)C(C)C)C(C)C)[C@@H](C)CC)[C@@H](C)OC(=O)[C@H](C(C)C)NC1=O [Compound 91, [N(CH2)4,N′(Me)2-Arg^8]-Kahalalide F] ({Hexanoyl(5-Me)}-[dV]TV[dV][dP][X2][d(aIle)][d(aThr)][d(aIle)][dV]F[Dhb]V; ester 8-C) |  |  |  |  |  |  |  |  |  |  |  |  |  |  |  |  |  |  | 4.37E−07 Molar | 3.12E−07 Molar | GI50 (A-549; SRB): 0.312 µM; CC50 (A-549; SRB): 0.624 µM; GI50 (HT-29; SRB): 0.0624 µM; CC50 (HT-29; SRB): 0.562 µM
5 | C/C=C1\NC(=O)[C@H](Cc2ccccc2)NC(=O)[C@@H](C(C)C)NC(=O)[C@@H]([C@@H](C)CC)NC(=O)[C@H](NC(=O)[C@H](NC(=O)[C@H](CCCN)NC(=O)[C@H]2CCCN2C(=O)[C@H](NC(=O)[C@@H](NC(=O)[C@@H](NC(=O)[C@H](NC(=O)c2ccc3c(c2)OCO3)C(C)C)[C@@H](C)O)C(C)C)C(C)C)[C@@H](C)CC)[C@@H](C)OC(=O)[C@H](C(C)C)NC1=O [Compound 23, [Pipe^14]-KF] | 1.98E−06 Molar | 0.661 µM | 4.62 µM |  |  |  | 3.30E−07 Molar | 0.132 µM | 0.528 µM |  |  |  |  |  |  |  |  |  |  |  | 
6 | C/C=C1\NC(=O)[C@H](Cc2ccccc2)NC(=O)[C@@H](C(C)C)NC(=O)[C@@H]([C@@H](C)CC)NC(=O)[C@H](NC(=O)[C@H](NC(=O)[C@H](CCCN=C(N(C)C)N(C)c2ccccc2)NC(=O)[C@H]2CCCN2C(=O)[C@H](NC(=O)[C@@H](NC(=O)[C@@H](NC(=O)[C@H](NC(=O)CCCC(C)C)C(C)C)[C@@H](C)O)C(C)C)C(C)C)[C@@H](C)CC)[C@@H](C)OC(=O)[C@H](C(C)C)NC1=O [Compound 90, [N(Me,Ph),N′(ME)2-Arg^8]-Kahalalide F] ({Hexanoyl(5-Me)}-[dV]TV[dV][dP][X3][d(aIle)][d(aThr)][d(aIle)][dV]F[Dhb]V; ester 8-C) |  |  |  |  |  |  |  |  |  |  |  |  |  |  |  |  |  |  | 4.27E−07 Molar | 3.05E−07 Molar | 
